Measurements from patent US20240398775A1, “PHARMACEUTICAL COMPOSITION FOR USE IN TREATING COGNITIVE DECLINE OR FOR USE IN TREATING OVERWEIGHT OR OBESITY” (University of the Ryukyus, priority 2021, published 2024).

Key:
[1] = test system: hippocampus and body weight of a person; experiment: Perampanel in an obese person: brain MRI, body weight, BMI; type: in vivo, human; conditions: for BMI: 26 w after surgery / 26 weeks of PER administration, before: 37.7
Procedure: The effect of an AMPA receptor antagonist on the hippocampus and body weight of a person with a BMI value of 38 was investigated. A person had quadriplegia and respiratory disorders due to a large foramen magnum tumor. After the tumor extraction, anti-epileptic treatment was performed. As an anti-epileptic treatment, 2 mg/day (thereafter, the dose was changed to 4 mg/day) of perampanel was orally administered. The transition of the body weight and the Fugl-meyer assessment score of the lower limb was observed. In addition, the size of the hippocampus was evaluated from MRI of the brain of the at 26 weeks after surgery.

[2] = test system: dendritic arbors and spines of hippocampus; experiment: Golgi staining of hippocampus; type: in vivo, mouse; conditions: HFD mice with PER
Description: Coronal sections of mouse brains from Bregma-0.94 mm to Bregma-4.04 mm (5 mm wide, including the entire hippocampus from dorsal to ventral, medial to lateral) were fixed with 4% paraformaldehyde for 2 days, and then stained with the Golgi Cox staining system (FD Rapid GolgiStain™ Kit, MD 21041, USA). The impregnated tissues were cut into 100 μm sections and counterstained with crystal violet, and the total number of 15 μm spines on the apical dendrites of CA1 and DG and the percentage of morphologic spines (thin, stubby, mushroom) were examined using an Axio Observer Z1 (Carl Zeiss, Germany). Another set of paraformaldehyde-fixed 5 mm wide coronal sections of the brain, including the entire hippocampus, were processed using the passive CLARITY technique (PACT) (62) and examined through Lightsheet Z.1 (Carl Zeiss, Germany) using a 10× clear objective lens, and 3D images of Thy1-YFPH transgenic mice (the Jackson Laboratory, stock number: 003709, strain name: B6. Cg-Tg. (Thy1-YFP) 16Jrs/J) (63, 64), HFD-fed mice, and whole hippocampus of the HFD-fed mice with PER treatment. were acquired respectively. Maximum intensity projection images were acquired along the Z dimension, time dimension, and channel dimension to create an output image with the pixel containing the maximum value for all images in the stack at a particular pixel position. With the Z-stack function, a series of XY images at different focus positions can be acquired to create Z-stack. In this manner, a 3D dataset of 400 μm×400 μm was obtained from the specimens, dorsal to lateral and medial to lateral for each of CA1, CA3, and DG.

HFD-fed mice [3] = experiment: Morris water maze pattern completion test; type: in vivo, mouse; conditions: PER administration
Procedure: The Morris water maze task was performed as previously described using mice with CD, HFD, and HFD with PER treatment (49). All experiments were performed at approximately the same time of day. Mice were transported from the colony to the holding area and kept undisturbed for 30 minutes prior to the experiment. The tests were performed in a rectangular dimly lit room with a circular pool (Muromachi Kikai Co., Ltd., Tokyo, Japan) of 120 cm diameter filled with opaque water with skim milk (Morinaga, Japan) kept at room temperature. Four large objects illuminated by floor lamps were hung on the black curtains surrounding the pool as cues outside the maze. A hidden circular platform with a diameter of 10 cm was placed 1 cm below the surface of the water and the mice were trained to find the platform 4 times per day at intervals of approximately 60 minutes for 12 days. During training, the mice were released from 4 start points (N, S, E, and W) assigned in a pseudo-random manner and allowed to swim for 300 seconds.
On the thirteenth day, a probe trial was performed under the condition of full-cue (P1). […] Training and probe trial data were collected and analyzed using CompACT VAS/DV video tracking system software. The escape latency to the hidden platform (goal reaching time) was measured.

HFD-fed mice [4] = experiment: Five-trial social memory assay; type: in vivo, mouse; conditions: PER treatment
Procedure: Five-trial social tests were performed as previously described (19). In summary, subject mice with CD, HFD, and HFD with PER treatment were housed individually starting 7 days before the study to establish territory dominance. On the day of the test, a female mouse was presented in the cages of subject male mice, which is a subject (FIG. 2G), and 5 min trials were performed 4 times in succession at 10 min intervals. In the fifth trial, a novel female mouse was presented (FIG. 2G) and the duration of the social investigation was recorded.

Aβ42/Aβ40 = Aβ42/Aβ40 ratio of neurosphere culture supernatant by EIA; type: cell-based; conditions: neurospheres from NL-G-F(−/−) mouse embryonic hippocampus, perampanel 50 μM, day 2 and day 4 of culture
Description: Biomarkers of Alzheimer's dementia include the Aβ42/Aβ40 ratio of cerebrospinal fluid (CSF) and plasma levels, phosphorylated tau (P-tau) in threonines 181 and 217, and neurofilament lite (NfL) (Curr Opin Neurol 2021 1 266-274). The Aβ42/Aβ40 ratio is considered to be able to predict Aβ accumulation in PET (Doecke J D et al., Neurology 2020). Hippocampus on 17 to 19 days of NL-G-F(−/−) mouse embryonic life was taken out and cultured by a Neurosphere method by Brewer G J et al. (Nat Protoc 2007 2, 1490-1498), and a supernatant was measured by an EIA method using this culture system. The change in the Aβ42/Aβ40 ratio by the perampanel (50 μM/methyl cellulose 4 μL) was analyzed. In 4 μL of a 0.5 w/v % aqueous solution of methyl cellulose 400, 5×10^4 spheres smaller than 50 μm in diameter were cultured in 50 ml Falcon Flask coated with poly-D-lysine/laminin, and Aβ42 and Aβ40 of the supernatant were measured by EIA method on the second day (FIG. 29A) and the fourth day (FIG. 29B) of culture. The solvent was administered 12 hours after seeding.

Aβ = Aβ staining of neurosphere culture; type: cell-based, mouse; conditions: neurospheres from NL-G-F(−/−) mice, fourth day of culture, perampanel group

N#Cc1ccccc1-c1cc(-c2ccccn2)cn(-c2ccccc2)c1=O [PER, 3-(2-cyanophenyl)-5-(2-pyridyl)-1-phenyl-1,2-dihydropyridine-2-one]
body weight of the person ([1]; obese person after administration): decreased smoothly | BMI ([1]; obese person): 31 | BMI ([1]; obese person, listed as AMPA receptor antagonist): 33.4 | gray matter/TIV ([1]; obese person, 26 w after surgery, oral perampanel 2 then 4 mg/day): 0.50 L/L | size of the hippocampus (MRI) ([1]; obese person, 26 weeks after surgery, PER administration): clearly increased | Golgi staining positive cells in DG [2]: restored | integrity of dendritic arbors in CA1 (Golgi staining) [2]: restored | spine maturation in DG [2]: immature spines became mature | pattern completion ability (HFD-fed mice [3]): restored | social memory (HFD-fed mice [4]): restored social memory disturbance | Aβ42/Aβ40 ratio of the culture supernatant (Aβ42/Aβ40): significantly increased | Aβ staining of culture (Aβ): decrease in Aβ
